Where a name gives a salt, the structure may show the parent alone.
Tested on: alpha 1a receptors versus alpha 1b and alpha 1d receptors
Assay: Selective Binding Assays: binding to alpha 1a versus alpha 1b and alpha 1d receptors ([125I]-HEAT competition binding)
Design: species or system human
Conditions: alpha 1a versus both alpha 1b and alpha 1d; at least about
Method: Membranes prepared from the stably transfected human alpha 1a cell line (ATCC CRL 11140) were used to identify compounds that bind to the human alpha 1a adrenergic receptor. These competition binding reactions (total volume=200 μl) contained 50 mM Tris-HCl pH. 7.4, 5 mM EDTA, 150 mM NaCl, 100 pM [^125 I]-HEAT, membranes prepared from the alpha 1a cell line and increasing amounts of unlabeled ligand. Reactions were incubated at room temperature for one hour with shaking. Reactions were filtered onto Whatman GF/C glass fiber filters with a Inotec 96 well cell harvester. Filters were washed three times with ice cold buffer and bound radioactivity was determined (Ki).
Membranes prepared from stably transfected human alpha 1d and alpha 1b cell lines (ATCC CRL 11138 and CRL 11139, respectively) were used to identify compounds that selectively bind to the human alpha 1a adrenergic receptor. These competition binding reactions (total volume=200 μl) contained 50 mM Tris-HCl pH. 7.4, 5 mM EDTA, 150 mM NaCl, 100 pM [^125 I]-HEAT, membranes prepared from cell lines transfected with the respective alpha 1 subtype expression plasmid and increasing amounts of unlabeled ligand. Reactions were incubated at room temperature for one hour with shaking. Reactions were filtered onto Whatman GF/C glass fiber filters with a Inotec 96 well cell harvester. Filters were washed three times with ice cold buffer and bound radioactivity was determined (Ki).

fold more selective in binding to alpha 1a receptors versus binding to the alpha 1b and alpha 1d receptors: at least 10 fold
Structure (SMILES): O=C1CCCC(c2ccc(F)c(F)c2)N1C(=O)NCCCN1CCC(c2ccc(F)cc2)CC1 (racemic) [Example 4, (6RS)-, 6(R)-, and 6(S)-1-[3-[4-(4-Fluorophenyl)piperidin-1-yl]-propylaminocarbonyl]-6-(3,4-difluorophenyl)piperidin-2-one Hydrochloride]
